# What was measured:
# [1] = tested on: gluten-sensitive rhesus macaque FH45; experiment: Indirect ELISA for plasma AGA and anti-TG2 antibodies during gluten challenge with EP-B2; format: in vivo, rhesus macaques (Macaca mulatta)
# Description: Gluten-sensitive FH45 and control FI96 were switched from a gluten-containing to a gluten-free diet at week 0, re-challenged with the gluten-containing diet from week 10.4 to 11.4, and then returned to a gluten-free diet for the remainder of the experiment. To test whether orally administered EP-B2 can prevent clinical symptoms resulting from gluten challenge, animals were fed a gluten-free diet with the addition of a daily slice of unbleached wheat bread (∼4 g gluten) for 8 weeks (weeks 22.9 to 30.9), during the first 4 of which (weeks 22.9 to 26.9) gluten-sensitive macaque FH45 received a daily dose of 2 g recombinant proEP-B2 dissolved in an electrolyte drink immediately prior to bread consumption. Recombinant proEP-B2 was expressed and purified as previously described, [31]. Peripheral blood samples (1 ml) were collected every 1–2 weeks from a femoral vein, and plasma was harvested and stored at −80 °C until analyzed for AGA and anti-TG2 antibodies. Clinical health was monitored as previously described. Briefly, daily clinical scores were averaged over weekly intervals to obtain each weekly mean±standard deviation. Criteria for clinical scoring (1–6 scale) were scaled relative to “clinically normal”, age-matched controls, i.e. score of 1. Score 2 corresponded to beginning of diarrhea, i.e. pasty stools. Score 3 corresponded to semi-liquid stools and decreased activity. Score 4 corresponded to liquid stools, decreased activity, moderate dehydration and “balloon” stomach. Score 5 corresponded to liquid stools, depression, severe dehydration and balloon stomach. Score 6 corresponded to a moribund animal where prompt euthanasia is recommended.
# ELISA assays were performed as previously described.
# [2] = tested on: gluten-sensitive rhesus macaque FH45; experiment: Daily gluten challenge with or without oral EP-B2, clinical score; format: in vivo, rhesus macaques (Macaca mulatta)
# Description: Gluten-sensitive FH45 and control FI96 were switched from a gluten-containing to a gluten-free diet at week 0, re-challenged with the gluten-containing diet from week 10.4 to 11.4, and then returned to a gluten-free diet for the remainder of the experiment. To test whether orally administered EP-B2 can prevent clinical symptoms resulting from gluten challenge, animals were fed a gluten-free diet with the addition of a daily slice of unbleached wheat bread (∼4 g gluten) for 8 weeks (weeks 22.9 to 30.9), during the first 4 of which (weeks 22.9 to 26.9) gluten-sensitive macaque FH45 received a daily dose of 2 g recombinant proEP-B2 dissolved in an electrolyte drink immediately prior to bread consumption. Recombinant proEP-B2 was expressed and purified as previously described, [31]. Peripheral blood samples (1 ml) were collected every 1–2 weeks from a femoral vein, and plasma was harvested and stored at −80 °C until analyzed for AGA and anti-TG2 antibodies. Clinical health was monitored as previously described. Briefly, daily clinical scores were averaged over weekly intervals to obtain each weekly mean±standard deviation. Criteria for clinical scoring (1–6 scale) were scaled relative to “clinically normal”, age-matched controls, i.e. score of 1. Score 2 corresponded to beginning of diarrhea, i.e. pasty stools. Score 3 corresponded to semi-liquid stools and decreased activity. […]
# [3] = tested on: celiac patient-derived T cells; details: ref [2], [19], cited from earlier work
# [4] = rhesus monkey, in vivo
# Description: A 0.5 ml sample of EDTA-blood was collected from an ear vein at 0, 30, 60, 120, and 180 min following the 33-mer inoculation. […] Animals were fasted at least 2 h prior to peptide inoculations. Blood collections and 33-mer inoculations were performed with sedated and anesthetized animals.
# Following peptide dosing and peripheral plasma collection, described above, plasma proteins were precipitated by addition of acetonitrile. Plasma was mixed with an equal volume of cold acetonitrile+0.1% formic acid, vortexed, incubated for 2 h at 4°C, and centrifuged at 14,000•g for 10 min at 4°C. […] When quantitation was performed, unlabeled 33-mer was spiked into the plasma samples prior to acetonitrile precipitation as an internal control (5 pmol/100 µl injection) and injections were performed at least in triplicate.
# Mass spectrometry analysis was performed as previously described [20] with the following modifications. […] For ^D933-mer, the transitions monitored were m/z 981.0^4+→263.1^+ (30V cone voltage, 27eV collision energy.) for the quantitation assay and m/z 1307.7^3+→263.1^+ (40V cone voltage, 50eV collision energy) as a confirmatory transition. […] Levels of ^D933-mer in each sample were determined by comparison of the area under the ^D933-mer transition peak to the area under the internal standard transition peak. […]
# [5] = daily 2 g proEP-B2 plus wheat bread
substance,measurement,setting,value
"EP-B2: gluten-specific barley cysteine endoprotease, dosed orally as recombinant proenzyme; oral glutenase drug candidate for celiac disease",Anti-TG2 IgA,[1]; EP-B2 treatment with gluten challenge,unable to detect
same,AGA levels during wheat bread/EP-B2 administration relative to gluten-containing diet (week 0),[1]; [5],~3 fold
same,Anti-TG2 IgG levels over the course of EP-B2 treatment,[1]; [5],elevated
same,Clinical health during gluten challenge with EP-B2,"[2]; daily 2 g recombinant proEP-B2 oral immediately before a daily slice of wheat bread (∼4 g gluten), first 4 weeks (weeks 22.9 to 26.9), clinical score 1–6 scale",remained clinically healthy
same,Time to signs of clinical illness after EP-B2 dosing was concluded,[2]; wheat bread gluten challenge continued without EP-B2 (weeks 26.9 to 30.9),~1 week
"LQLQPFPQPQLPYPQPQLPYPQPQLPYPQPQPF [33-mer, immunotoxic 33-mer gluten peptide derived from gastrointestinal proteolysis of α2-gliadin; unlabeled form used as internal standard]",Concentration sufficient to stimulate proliferation of celiac patient-derived T cells,[3]; T cells in culture,low nanomolar concentrations
same,Proliferation of celiac patient-derived T cell lines,[3]; all T cell lines tested so far,activates proliferation in all celiac patient-derived T cell lines tested so far
LQLQPFPQPQLPYPQPQLPYPQPQLPYPQPQPF [^D933-mer],Detection of peptide in peripheral plasma at 60 minutes,[4],detected
same,Concentration in peripheral plasma at 60 minutes,[4]; SD,7.0 ± 0.4 nM

# Reference: PMC2267209, “Transepithelial Transport and Enzymatic Detoxification of Gluten in Gluten-Sensitive Rhesus Macaques” (PLoS ONE, 2008)
